# Assay results published in patent publication US12115180B2 (Board of Supervisors of Louisiana State University and …, priority 2020, dated 2024).
# Assays:
# [1] = pKa and protonation of the side-chain amines; assay type: physicochemical
# [2] = test system: neonatal rat cardiomyocytes (NRCs); experiment: Lactate dehydrogenase release assay for cardiac myocytes; assay type: cell-based, Sprague Dawley rat; settings: 5 μM, 10 μM, and 25 μM; 24 h
# Procedure: (§1) Cell Lines and Maintenance. Primary Neonatal Rat Cardiomyocyte Culture. The inventors isolated neonatal rat cardiomyocytes (NRCs) from the ventricles of 1-2 day old Sprague Dawley rat pups as described previously. Briefly, ventricular tissues excised from rat pups were digested with collagenase at 4° C. overnight with subsequent digestion in trypsin. Next, cells were preplated to remove cardiac fibroblasts, followed by plating of isolated cardiomyocytes at 1.5×10^6 cells per 10 cm^2 plate in αMEM containing 10% fetal bovine serum (FBS) (Gibco) and 1% antibiotic-antimycotic (Gibco) media. After 24 h, NRCs were maintained in Dulbecco's modified Eagle's medium (DMEM) (Gibco) containing 2% FBS and 1% antibiotic-antimycotic and subjected to different treatments, as described previously. All cell culture treatments were repeated in three independent experiments.
# Biochemical Assays. Lactate Dehydrogenase Release Assay for Cardiac Myocytes. Following treatments, culture media were collected and cleared by centrifugation at 5000 g for 10 min. Lactate dehydrogenase (LDH) release into culture media was measured using a cytotoxicity detection kit (Roche®) as per the manufacturer's instructions. Color development was measured using a microplate absorbance reader at an absorbance of 492 nm (Bio-Rad®).
# p53 = experiment: Western blot of p53 expression in NRCs; assay type: cell-based, Sprague Dawley rat; settings: 10 μM, 24 h
# Procedure: as §1
# Protein Extraction and Western Blot Analyses. NRCs were washed with PBS and lysed with CelLytic M (Sigma-Aldrich) lysis buffer containing a complete protease inhibitor cocktail (Roche®). […] The protein concentration of the soluble cardiomyocyte lysates was measured using the modified Bradford reagent relative to a BSA standard curve (Bio-Rad®) in a 1 mL cuvette on a DS-11 FX+ spectrophotometer (DeNovix®, Wilmington, DE). […]
SMILES,pKa [1],fraction protonated ([1]; pH 4.5) [%],fraction protonated ([1]; pH 5.5) [%],LDH release (cell death) [2],p53 protein expression (p53)
CCCCN(CCN)CCCC,4,24,3,,
"COc1cccc2c1C(=O)c1c(O)c3c(c(O)c1C2=O)C[C@@](O)(C(=O)CO)C[C@@H]3O[C@H]1C[C@H](N)[C@H](O)[C@H](C)O1 [con-DOX, doxorubicin]",,,,dose-dependent increase in cell death,increased p53 expression
"NCCN1CCCC1 [PY, 2-pyrrolidine-1-yl-ethyl-amine]",5.4,89,44,,
